Results: patent US20230399289A1, “ITACONIC ACID DERIVATIVES” (Sitryx Therapeutics Limited, priority 2020, published 2023)

Key:
[1] = tested on: IL-6 cytokine output from THP-1 cells; assay: THP-1 AlphaLISA IL-6 cytokine assay; format: cell-based; conditions: Homo sapiens, THP-1, differentiated THP-1 cells, LPS 24 hr then Nigericin 1 hour
Experimental: (§1) Measuring Inhibitory Effects on IL-1β and IL-6 Cytokine Output from THP-1s
(§2) The cytokine inhibition profiles of compounds of formula (I) were determined in a differentiated THP-1 cell assay. All assays were performed in RPMI-1640 growth medium (Gibco), supplemented with 10% fetal bovine serum (FBS; Gibco), 1% penicillin-streptomycin and 1% sodium pyruvate unless specified otherwise. The IL-1β and IL-6 cytokine inhibition assays were each run in a background of differentiated THP-1 cells as described below. All reagents described were from Sigma-Aldrich unless specified otherwise. Compounds were prepared as 10 mM DMSO stocks.
(§3) THP-1 cells were expanded as a suspension up to 80% confluence in appropriate growth medium. Cells were harvested, suspended, and treated with an appropriate concentration of phorbol 12-myristate 13-acetate (PMA) over a 72 hr period (37° C./5% CO2).
(§4) Following 72 hrs of THP-1 cell incubation, cellular medium was removed and replaced with fresh growth media containing 1% of FBS. Working concentrations of compounds were prepared separately in 10% FBS treated growth medium and pre-incubated with the cells for 30 minutes (37° C./5% CO2). Following the 30 minute compound pre-incubation, THP-1s were treated with an appropriate concentration of LPS and the THP-1s were subsequently incubated for a 24 hr period (37° C./5% CO2). An appropriate final concentration of Nigericin was then dispensed into the THP-1 plates and incubated for 1 hour (37° C./5% CO2) before THP-1 supernatants were harvested and collected in separate polypropylene 96-well holding plates.
(§5) Reagents from each of the […] and IL-6 commercial kits (Perkin Elmer) were prepared and run according to the manufacturer's instructions. Subsequently, fluorescence signal detection in a microplate reader was measured (EnVision® Multilabel Reader, Perkin Elmer).
(§6) Percentage inhibition was calculated per cytokine by normalising the sample data to the high and low controls used within each plate (+/−LPS respectively). Percentage inhibition was then plotted against compound concentration and the 50% inhibitory concentration (IC50) was determined from the resultant concentration-response curve.

hepatocytes [2] = assay: Hepatocyte stability assay, mouse; format: in vitro ADME; conditions: 10 μM compound, 0.5×10^6 cells/mL, 60 min
Source text: (§7) Defrosted cryo-preserved hepatocytes (viability>70%) may be used to determine the metabolic stability of a compound via calculation of intrinsic clearance (Clint; a measure of the removal of a compound from the liver in the absence of blood flow and cell binding). Clearance data are particularly important for in vitro work as they can be used in combination with in vivo data to predict the half-life and oral bioavailability of a drug.
(§8) The metabolic stability in hepatocytes assay involves a time-dependent reaction using both positive and negative controls. The cells were pre-incubated at 37° C. and spiked with test compound (and positive control); samples were taken at pre-determined time intervals and analysed to monitor the change in concentration of the initial drug compound over 60 minutes. A buffer incubation reaction (with no hepatocytes present) acted as a negative control and two cocktail solutions, containing compounds with known high and low clearance values (verapamil/7-hydroxycoumarin and propranolol/diltiazem), acted as positive controls. • 1. The assay was run with a cell concentration of 0.5×10^6 cells/mL in Leibovitz buffer. • 2. All compounds and controls were run in duplicate. • 3. Compound concentration was 10 μM. • 4. All compounds and controls were incubated with both cells and buffer to show turnover was due to hepatic metabolism. • 5. All wells on the incubation plate had 326.7 μL of either cells or buffer added. • 6. Prior to assay, cell and buffer-only incubation plates were preincubated for 10 mins at 37° C. • 7. The assay was initiated by adding compounds, 3.3 μL of 1 mM in 10% DMSO-90% Buffer; final DMSO concentration is 0.1%. • 8. Samples were taken at regular timepoints (0, 5, 10, 20, 40, 60 min) until 60 mins. • 9. Sample volume was 40 μL and was added to 160 μL of crash solvent (acetonitrile with internal standard) and stored on ice. • 10. At the end of the assay, the crash plates were centrifuged at 3500 rpm for 20 mins at 4° C. • 11. 80 μL of clear supernatant was removed and mixed with 80 μL of deionised water before being analysed by LC-MS/MS.
(§9) Raw LC-MS/MS data was exported to, and analysed in, Microsoft Excel for determination of intrinsic clearance. The percentage remaining of a compound was monitored using the peak area of the initial concentration as 100%. Intrinsic clearance and half-life values were calculated using a graph of the natural log of percentage remaining versus the time of reaction in minutes. Half-life (min) and intrinsic clearance (Clint in μL min^−1 10^−6 cells) values were calculated using the gradient of the graph (the elimination rate constant, k) and Equations 1 and 2.

[3] = Hepatocyte stability assay, mouse; format: in vitro ADME; conditions: cryopreserved hepatocytes, 10 μM compound, 0.5×10^6 cells/mL, 60 min, read-out: T½
Source text: as §7, §8, §9

[4] = tested on: IL-1β cytokine output from THP-1 cells; assay: THP-1 AlphaLISA IL-1β cytokine assay; format: cell-based; conditions: Homo sapiens, THP-1, differentiated THP-1 cells, LPS 24 hr then Nigericin 1 hour
Experimental: as §1, §2, §3, §4, §5, §6

[5] = tested on: NRF2 (nuclear factor erythroid 2-related factor 2); assay: NRF2 +/−GSH activation assay (DiscoverX PathHunter NRF2 translocation kit, U2OS cells); format: cell-based; conditions: Homo sapiens; for Emax: U2OS, normalised to dimethyl fumarate high control; for EC50: U2OS PathHunter cells, 6 hours
hepatocytes [6] = assay: Hepatocyte stability assay, human; format: in vitro ADME; conditions: 10 μM compound, 0.5×10^6 cells/mL, 60 min
Source text: as §7, §8, §9

[7] = Hepatocyte stability assay, human; format: in vitro ADME; conditions: cryopreserved hepatocytes, 10 μM compound, 0.5×10^6 cells/mL, 60 min, read-out: T½
Source text: as §7, §8, §9

[8] = +GSH, 30 minute compound-GSH pre-incubation

Structure (SMILES) | IC50 [1] | CIint (hepatocytes [2]) | half-life at 10 μM [3] | IC50 [4] | Emax ([5]; +GSH) | Emax ([5]; −GSH) | EC50 [5, 8] | EC50 ([5]; −GSH) | CIint (hepatocytes [6]) | half-life at 10 μM [7]
C=C(CC(=O)OC1(c2cc(Cl)cc(Cl)c2)CCC1)C(=O)OCC(=O)O [Example 1, 2-((4-(1-(3,5-dichlorophenyl)cyclobutoxy)-2-methylene-4-oxobutanoyl)oxy)acetic acid] | 4.6 µM | 52 μL min^−1 10^−6 cells | 0.4 h | 9.4 µM | 259% | 375% | 11.1 µM | 7.7 µM | 13 μL min^−1 10^−6 cells | 1.93 h
C=C(CC(=O)OC1(c2ccc(Br)cc2)CCC1)C(=O)OCC(=O)O [Example 3, 2-((4-(1-(4-bromophenyl)cyclobutoxy)-2-methylene-4-oxobutanoyl)oxy)acetic acid] | 11.3 µM | 95 μL min^−1 10^−6 cells | 0.333 h | 12.1 µM | – | – | – | – | 9 μL min^−1 10^−6 cells | 2.9 h
C=C(CC(=O)OC1(c2ccc(Br)cc2Cl)CCC1)C(=O)OCC(=O)O [Example 12, 2-((4-(1-(4-bromo-2-chlorophenyl)cyclobutoxy)-2-methylene-4-oxobutanoyl)oxy)acetic acid] | – | 239 μL min^−1 10^−6 cells | 0.1 h | 8.8 µM | 158% | 217% | 7.9 µM | 5.2 µM | 23 μL min^−1 10^−6 cells | 1.07 h
C=C(CC(=O)OC1(c2ccc(Cl)cc2)CCC1)C(=O)OCC(=O)O [Example 4, 2-((4-(1-(4-chlorophenyl)cyclobutoxy)-2-methylene-4-oxobutanoyl)oxy)acetic acid] | 6.9 µM | 69 μL min^−1 10^−6 cells | 0.467 h | 12.4 µM | 171% | 192% | 28.9 µM | 19 µM | 8 μL min^−1 10^−6 cells | 3.15 h
C=C(CC(=O)OC1(c2cc(Cl)cc(Cl)c2)CCC1)C(=O)OCCC(=O)O [Example 13, 3-((4-(1-(3,5-dichlorophenyl)cyclobutoxy)-2-methylene-4-oxobutanoyl)oxy)propanoic acid] | 5.9 µM | >460 μL min^−1 10^−6 cells | < 0.05 h | 12.5 µM | 143% | 251% | 11.6 µM | 7.6 µM | 16 μL min^−1 10^−6 cells | 1.67 h
C=C(CC(=O)OC1(c2ccc(OC(F)(F)F)cc2Cl)CCC1)C(=O)OCC(=O)O [Example 6, 2-((4-(1-(2-chloro-4-(trifluoromethoxy)phenyl)cyclobutoxy)-2-methylene-4-oxobutanoyl)oxy)acetic acid] | – | >460 μL min^−1 10^−6 cells | < 0.05 h | 12.7 µM | 187% | 219% | 15.4 µM | 11.9 µM | 18 μL min^−1 10^−6 cells | 1.42 h
C=C(CC(=O)OC1(c2ccc(C(F)(F)F)cc2)COC1)C(=O)OCCC(=O)O [Example 32, 3-((2-methylene-4-oxo-4-((3-(4-(trifluoromethyl)phenyl)oxetan-3-yl)oxy)butanoyl)oxy)propanoic acid] | 11.9 µM | 36 μL min^−1 10^−6 cells | 0.683 h | 7.4 µM | – | – | – | – | 4 μL min^−1 10^−6 cells | 6.78 h
C=C(CC(=O)OC1(c2c(Cl)cccc2Cl)CCC1)C(=O)OCC(=O)O [Example 8, 2-((4-(1-(2,6-dichlorophenyl)cyclobutoxy)-2-methylene-4-oxobutanoyl)oxy)acetic acid] | 6 µM | 223 μL min^−1 10^−6 cells | 0.15 h | 15.2 µM | 170% | 193% | 18.7 µM | 12.2 µM | 11 μL min^−1 10^−6 cells | 2.37 h
C=C(CC(=O)OC1(c2ccc(C(F)(F)F)cc2)CC1)C(=O)OCC(=O)O [Example 30, 2-((2-methylene-4-oxo-4-(1-(4-(trifluoromethyl)phenyl)cyclopropoxy)butanoyl)oxy)acetic acid] | > 100 µM | 33 μL min^−1 10^−6 cells | 0.65 h | 16.7 µM | – | – | – | – | 16 μL min^−1 10^−6 cells | 1.43 h
C=C(CC(=O)OC1(c2ccc(OC(F)(F)F)cc2)CCC1)C(=O)OCC(=O)O [Example 9, 2-((2-methylene-4-oxo-4-(1-(4-(trifluoromethoxy)phenyl)cyclobutoxy)butanoyl)oxy)acetic acid] | – | 66 μL min^−1 10^−6 cells | 0.483 h | 12.1 µM | 182% | 210% | 7.3 µM | 5.1 µM | 6 μL min^−1 10^−6 cells | 4.18 h
C=C(CC(=O)OC1(c2ccc(Cl)cc2Cl)CCC1)C(=O)OCC(=O)O [Example 10, 2-((4-(1-(2,4-dichlorophenyl)cyclobutoxy)-2-methylene-4-oxobutanoyl)oxy)acetic acid] | – | 187 μL min^−1 10^−6 cells | 0.133 h | 11.3 µM | 175% | 236% | 11.6 µM | 8.3 µM | 14 μL min^−1 10^−6 cells | 1.78 h
C=C(CC(=O)OC1(c2ccc(C(F)(F)F)cc2Cl)CCC1)C(=O)OCC(=O)O [Example 11, 2-((4-(1-(2-chloro-4-(trifluoromethyl)phenyl)cyclobutoxy)-2-methylene-4-oxobutanoyl)oxy)acetic acid] | – | 100 μL min^−1 10^−6 cells | 0.25 h | 9 µM | 160% | 214% | 5.1 µM | 3 µM | 10 μL min^−1 10^−6 cells | 2.53 h
C=C(CC(=O)OC1(c2cccc(Cl)c2Cl)CCC1)C(=O)OCC(=O)O [Example 7, 2-((4-(1-(2,3-dichlorophenyl)cyclobutoxy)-2-methylene-4-oxobutanoyl)oxy)acetic acid] | – | 107 μL min^−1 10^−6 cells | 0.3 h | 17.4 µM | – | – | – | – | 10 μL min^−1 10^−6 cells | 2.52 h
